{"source": "ChEMBL document CHEMBL4630901", "about": "(2021)", "key": {"[1]": {"biological_target": "Prostaglandin F2-alpha receptor (Homo sapiens, UniProt P43088)", "sequence (P43088 whole entry)": "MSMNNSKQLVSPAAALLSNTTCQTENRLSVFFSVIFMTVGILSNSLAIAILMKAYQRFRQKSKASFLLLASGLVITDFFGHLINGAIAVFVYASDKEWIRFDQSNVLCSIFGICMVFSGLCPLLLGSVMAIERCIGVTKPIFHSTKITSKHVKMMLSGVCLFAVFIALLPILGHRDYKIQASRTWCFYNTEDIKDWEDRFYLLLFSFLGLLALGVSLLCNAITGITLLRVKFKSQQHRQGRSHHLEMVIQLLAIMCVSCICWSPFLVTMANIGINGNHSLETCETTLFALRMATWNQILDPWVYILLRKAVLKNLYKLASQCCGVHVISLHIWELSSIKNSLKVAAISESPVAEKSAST", "assay": "Prostanoid FP Eurofins-Panlabs radioligand binding assay", "parameters": "ligand concentration 1 nM"}, "[2]": {"biological_target": "Prostacyclin receptor (Homo sapiens) (UniProt P43119)", "sequence (P43119 whole entry)": "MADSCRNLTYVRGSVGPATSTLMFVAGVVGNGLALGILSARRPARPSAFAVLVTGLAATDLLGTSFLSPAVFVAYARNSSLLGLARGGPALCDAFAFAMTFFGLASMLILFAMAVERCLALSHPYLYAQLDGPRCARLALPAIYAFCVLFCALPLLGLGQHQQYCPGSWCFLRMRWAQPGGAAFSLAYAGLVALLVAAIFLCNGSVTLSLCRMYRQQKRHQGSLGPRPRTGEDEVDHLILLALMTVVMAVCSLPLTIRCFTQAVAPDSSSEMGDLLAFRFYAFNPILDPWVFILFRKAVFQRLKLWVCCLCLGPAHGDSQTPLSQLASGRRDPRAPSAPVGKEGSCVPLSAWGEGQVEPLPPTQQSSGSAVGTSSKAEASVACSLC", "assay": "IP (PGI2) Eurofins-Panlabs radioligand binding assay", "parameters": "ligand concentration 6 nM"}, "[3]": {"biological_target": "T1, Prostaglandin E2 receptor EP3 subtype (Homo sapiens) (UniProt P43115)", "T1 sequence (whole entry)": "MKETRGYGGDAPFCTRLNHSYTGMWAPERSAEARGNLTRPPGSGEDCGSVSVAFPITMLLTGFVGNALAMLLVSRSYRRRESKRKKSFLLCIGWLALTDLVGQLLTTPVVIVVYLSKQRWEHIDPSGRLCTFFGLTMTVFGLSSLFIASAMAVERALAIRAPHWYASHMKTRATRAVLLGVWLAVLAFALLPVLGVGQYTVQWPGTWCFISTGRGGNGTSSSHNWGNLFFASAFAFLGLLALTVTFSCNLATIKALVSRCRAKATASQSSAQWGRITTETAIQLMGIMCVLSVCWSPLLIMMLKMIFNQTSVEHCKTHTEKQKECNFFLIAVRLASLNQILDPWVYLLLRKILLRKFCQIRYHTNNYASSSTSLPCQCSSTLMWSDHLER", "assay": "Prostanoid EP3 Eurofins-Panlabs radioligand binding assay", "parameters": "ligand concentration 0.5 nM"}, "[4]": {"biological_target": "Histamine H4 receptor (Homo sapiens) (UniProt Q9H3N8)", "conditions": "Compound concentration 10.0 uM"}, "[5]": {"biological_target": "Cannabinoid receptor 1 (Homo sapiens) (UniProt P21554)", "sequence (P21554 whole entry)": "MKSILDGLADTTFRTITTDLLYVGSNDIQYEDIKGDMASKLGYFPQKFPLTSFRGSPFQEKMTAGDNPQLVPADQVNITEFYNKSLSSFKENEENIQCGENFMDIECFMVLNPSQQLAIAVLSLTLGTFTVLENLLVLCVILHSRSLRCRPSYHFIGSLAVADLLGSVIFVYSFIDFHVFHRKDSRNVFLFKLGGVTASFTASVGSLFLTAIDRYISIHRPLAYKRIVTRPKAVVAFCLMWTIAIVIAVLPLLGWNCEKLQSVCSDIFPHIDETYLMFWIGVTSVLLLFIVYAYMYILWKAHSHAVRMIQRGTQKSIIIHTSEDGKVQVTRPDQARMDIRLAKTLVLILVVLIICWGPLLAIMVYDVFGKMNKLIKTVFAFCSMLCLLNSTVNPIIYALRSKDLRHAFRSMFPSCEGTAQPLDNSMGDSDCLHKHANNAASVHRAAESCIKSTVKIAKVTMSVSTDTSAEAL", "conditions": "Compound concentration 10.0 uM"}, "[6]": {"biological_target": "D(3) dopamine receptor (Homo sapiens) (UniProt P35462)", "sequence (P35462 whole entry)": "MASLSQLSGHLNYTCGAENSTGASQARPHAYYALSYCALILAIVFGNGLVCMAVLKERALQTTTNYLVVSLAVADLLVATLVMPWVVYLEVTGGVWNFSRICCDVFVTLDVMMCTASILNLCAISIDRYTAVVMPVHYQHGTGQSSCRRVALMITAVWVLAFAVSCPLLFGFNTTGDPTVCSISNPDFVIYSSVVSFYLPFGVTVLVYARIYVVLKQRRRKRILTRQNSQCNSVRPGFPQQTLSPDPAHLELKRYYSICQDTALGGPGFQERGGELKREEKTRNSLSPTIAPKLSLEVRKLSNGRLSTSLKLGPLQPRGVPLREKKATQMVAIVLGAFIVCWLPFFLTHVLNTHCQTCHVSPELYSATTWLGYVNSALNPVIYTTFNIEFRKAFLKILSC", "conditions": "Compound concentration 10.0 uM"}, "[7]": {"biological_target": "Histamine H3 receptor (Homo sapiens) (UniProt Q9Y5N1)", "conditions": "Compound concentration 10.0 uM"}, "[8]": {"biological_target": "Kappa-type opioid receptor (Homo sapiens) (UniProt P41145)", "sequence (P41145 whole entry)": "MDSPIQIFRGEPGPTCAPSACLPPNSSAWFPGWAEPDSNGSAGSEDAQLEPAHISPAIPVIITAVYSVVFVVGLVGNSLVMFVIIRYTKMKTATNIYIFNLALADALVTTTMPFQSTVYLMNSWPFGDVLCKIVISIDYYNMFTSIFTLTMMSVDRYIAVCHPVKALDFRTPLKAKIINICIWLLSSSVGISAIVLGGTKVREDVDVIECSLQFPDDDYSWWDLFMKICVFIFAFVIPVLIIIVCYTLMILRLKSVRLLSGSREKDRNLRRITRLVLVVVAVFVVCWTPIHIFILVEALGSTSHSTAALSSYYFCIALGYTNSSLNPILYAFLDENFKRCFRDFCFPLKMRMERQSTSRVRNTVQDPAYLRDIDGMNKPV", "conditions": "Compound concentration 10.0 uM"}, "[9]": {"biological_target": "Mu-type opioid receptor (Homo sapiens) (UniProt P35372)", "conditions": "Compound concentration 10.0 uM"}, "[10]": {"biological_target": "Purinergic P2Y (Rattus norvegicus) (UniProt O35811+Q9EPX4+P49651+Q63371+P41232+O35881+Q6GUG4)", "conditions": "Compound concentration 10.0 uM"}, "[11]": {"biological_target": "T2, 5-hydroxytryptamine receptor 1A (Homo sapiens) (UniProt P08908)", "T2 sequence (whole entry)": "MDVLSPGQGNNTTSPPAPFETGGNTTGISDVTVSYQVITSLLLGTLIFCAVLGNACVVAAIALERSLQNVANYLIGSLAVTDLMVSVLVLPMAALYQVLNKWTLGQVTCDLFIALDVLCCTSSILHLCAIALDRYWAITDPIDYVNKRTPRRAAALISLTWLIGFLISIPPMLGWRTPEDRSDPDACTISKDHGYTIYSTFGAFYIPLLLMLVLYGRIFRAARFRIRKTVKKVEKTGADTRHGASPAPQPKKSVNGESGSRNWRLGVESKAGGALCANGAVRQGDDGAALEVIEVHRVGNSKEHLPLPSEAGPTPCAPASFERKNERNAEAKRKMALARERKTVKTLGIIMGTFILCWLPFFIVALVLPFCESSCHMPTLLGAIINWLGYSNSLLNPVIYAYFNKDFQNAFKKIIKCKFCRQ", "conditions": "Compound concentration 10.0 uM"}, "[12]": {"biological_target": "Glucocorticoid receptor (Homo sapiens) (UniProt P04150)", "conditions": "Compound concentration 10.0 uM"}, "[13]": {"biological_target": "T3, 5-hydroxytryptamine receptor 2C (Homo sapiens) (UniProt P28335)", "T3 sequence (whole entry)": "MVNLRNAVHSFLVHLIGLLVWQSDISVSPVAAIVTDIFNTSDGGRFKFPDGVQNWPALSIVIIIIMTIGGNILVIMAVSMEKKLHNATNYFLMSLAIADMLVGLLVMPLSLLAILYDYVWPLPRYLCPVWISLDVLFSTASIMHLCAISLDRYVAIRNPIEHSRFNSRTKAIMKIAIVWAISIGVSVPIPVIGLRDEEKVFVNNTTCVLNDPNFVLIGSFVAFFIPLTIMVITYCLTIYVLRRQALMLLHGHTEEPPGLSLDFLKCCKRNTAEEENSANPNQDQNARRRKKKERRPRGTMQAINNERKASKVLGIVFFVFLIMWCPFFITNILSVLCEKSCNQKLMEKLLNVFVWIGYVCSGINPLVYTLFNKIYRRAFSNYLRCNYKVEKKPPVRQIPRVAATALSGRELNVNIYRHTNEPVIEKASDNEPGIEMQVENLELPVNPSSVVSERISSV", "conditions": "Compound concentration 10.0 uM"}, "[14]": {"biological_target": "Motilin receptor (Homo sapiens) (UniProt O43193)", "sequence (O43193 whole entry)": "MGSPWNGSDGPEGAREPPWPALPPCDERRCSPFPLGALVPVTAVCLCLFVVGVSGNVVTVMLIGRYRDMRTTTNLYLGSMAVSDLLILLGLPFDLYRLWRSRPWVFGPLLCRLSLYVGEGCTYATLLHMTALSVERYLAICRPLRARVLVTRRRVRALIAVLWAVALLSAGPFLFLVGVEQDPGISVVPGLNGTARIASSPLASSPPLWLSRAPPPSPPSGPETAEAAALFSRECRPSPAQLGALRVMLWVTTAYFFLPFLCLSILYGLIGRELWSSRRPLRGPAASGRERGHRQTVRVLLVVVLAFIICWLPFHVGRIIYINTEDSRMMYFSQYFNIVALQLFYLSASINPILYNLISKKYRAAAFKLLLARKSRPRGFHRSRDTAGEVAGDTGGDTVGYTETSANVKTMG", "conditions": "Compound concentration 10.0 uM"}, "[15]": {"biological_target": "5-hydroxytryptamine receptor 3A (Homo sapiens, UniProt P46098)", "sequence (P46098 whole entry)": "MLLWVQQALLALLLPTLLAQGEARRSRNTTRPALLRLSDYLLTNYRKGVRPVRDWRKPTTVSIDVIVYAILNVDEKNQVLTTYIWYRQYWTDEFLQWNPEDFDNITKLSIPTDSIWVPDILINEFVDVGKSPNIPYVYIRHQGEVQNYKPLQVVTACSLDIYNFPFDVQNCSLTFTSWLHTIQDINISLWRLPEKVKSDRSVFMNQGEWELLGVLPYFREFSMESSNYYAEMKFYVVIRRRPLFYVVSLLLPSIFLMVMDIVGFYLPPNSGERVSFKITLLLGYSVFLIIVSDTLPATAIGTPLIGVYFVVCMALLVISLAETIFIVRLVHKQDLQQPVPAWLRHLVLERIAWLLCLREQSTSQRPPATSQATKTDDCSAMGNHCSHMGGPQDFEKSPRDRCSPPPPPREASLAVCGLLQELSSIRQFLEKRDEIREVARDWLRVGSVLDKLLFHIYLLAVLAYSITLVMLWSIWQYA", "assay": "GPCRScan assay: inhibition of 5-HT3", "parameters": "radioligand conc. used [nm] 1.0 – 2.0, parental cells HEKT"}, "[16]": {"biological_target": "5-hydroxytryptamine receptor 1D (Homo sapiens) (UniProt P28221)", "conditions": "Compound concentration 10.0 uM"}, "[17]": {"biological_target": "D(3) dopamine receptor (Homo sapiens) (UniProt P35462)", "conditions": "Compound concentration 10.0 uM", "remark": "listed apart in the source"}, "[18]": {"biological_target": "Sodium-dependent noradrenaline transporter (Homo sapiens) (UniProt P23975)", "sequence (P23975 whole entry)": "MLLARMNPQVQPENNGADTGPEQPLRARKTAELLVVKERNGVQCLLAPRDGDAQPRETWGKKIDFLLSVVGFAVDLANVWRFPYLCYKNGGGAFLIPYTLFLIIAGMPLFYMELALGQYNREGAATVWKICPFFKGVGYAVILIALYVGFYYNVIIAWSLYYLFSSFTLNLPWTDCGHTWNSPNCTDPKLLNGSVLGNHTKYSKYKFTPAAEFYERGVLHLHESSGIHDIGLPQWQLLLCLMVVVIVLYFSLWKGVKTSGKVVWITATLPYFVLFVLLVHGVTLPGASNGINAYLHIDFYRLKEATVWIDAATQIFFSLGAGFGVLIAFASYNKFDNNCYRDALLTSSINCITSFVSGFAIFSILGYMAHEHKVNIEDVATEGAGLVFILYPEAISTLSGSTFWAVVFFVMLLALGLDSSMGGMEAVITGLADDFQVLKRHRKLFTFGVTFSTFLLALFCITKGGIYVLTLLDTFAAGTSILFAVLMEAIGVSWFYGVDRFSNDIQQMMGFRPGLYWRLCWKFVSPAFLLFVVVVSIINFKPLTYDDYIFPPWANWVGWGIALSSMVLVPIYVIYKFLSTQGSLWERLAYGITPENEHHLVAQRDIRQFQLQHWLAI", "conditions": "Compound concentration 10.0 uM"}, "[19]": {"biological_target": "Sodium-dependent dopamine transporter (Homo sapiens) (UniProt Q01959)", "sequence (Q01959 whole entry)": "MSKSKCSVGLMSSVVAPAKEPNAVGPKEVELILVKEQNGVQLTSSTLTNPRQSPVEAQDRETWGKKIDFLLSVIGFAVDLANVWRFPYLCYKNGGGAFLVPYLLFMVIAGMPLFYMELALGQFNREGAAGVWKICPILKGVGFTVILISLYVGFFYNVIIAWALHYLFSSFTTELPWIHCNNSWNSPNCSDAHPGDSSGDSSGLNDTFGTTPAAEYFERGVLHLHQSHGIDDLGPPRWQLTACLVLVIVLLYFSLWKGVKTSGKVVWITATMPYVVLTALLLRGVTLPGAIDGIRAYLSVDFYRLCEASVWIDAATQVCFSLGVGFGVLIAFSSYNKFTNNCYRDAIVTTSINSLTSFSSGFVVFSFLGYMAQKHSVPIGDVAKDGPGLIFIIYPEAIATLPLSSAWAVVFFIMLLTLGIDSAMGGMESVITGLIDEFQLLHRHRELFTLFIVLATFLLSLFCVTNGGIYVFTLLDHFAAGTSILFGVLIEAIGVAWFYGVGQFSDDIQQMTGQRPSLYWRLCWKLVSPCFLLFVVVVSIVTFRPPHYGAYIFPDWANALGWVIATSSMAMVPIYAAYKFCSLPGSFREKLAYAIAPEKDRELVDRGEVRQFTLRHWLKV", "conditions": "Compound concentration 10.0 uM"}, "[20]": {"biological_target": "Alpha-2B adrenergic receptor (Homo sapiens) (UniProt P18089)", "sequence (P18089 whole entry)": "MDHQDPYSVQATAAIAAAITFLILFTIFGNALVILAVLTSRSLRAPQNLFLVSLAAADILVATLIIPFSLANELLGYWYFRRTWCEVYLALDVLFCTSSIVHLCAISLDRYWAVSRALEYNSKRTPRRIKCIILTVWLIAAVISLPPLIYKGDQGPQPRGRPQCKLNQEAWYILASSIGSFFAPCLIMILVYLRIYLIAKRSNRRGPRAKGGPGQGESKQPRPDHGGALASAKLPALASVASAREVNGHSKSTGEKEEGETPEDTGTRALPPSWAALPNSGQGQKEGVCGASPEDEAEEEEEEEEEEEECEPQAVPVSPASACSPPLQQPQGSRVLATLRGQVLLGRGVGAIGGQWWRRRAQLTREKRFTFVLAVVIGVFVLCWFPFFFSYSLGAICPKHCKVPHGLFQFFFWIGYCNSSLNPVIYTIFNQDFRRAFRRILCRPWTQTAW", "conditions": "Compound concentration 10.0 uM"}, "[21]": {"biological_target": "Sigma non-opioid intracellular receptor 1 (Homo sapiens) (UniProt Q99720)", "sequence (Q99720 whole entry)": "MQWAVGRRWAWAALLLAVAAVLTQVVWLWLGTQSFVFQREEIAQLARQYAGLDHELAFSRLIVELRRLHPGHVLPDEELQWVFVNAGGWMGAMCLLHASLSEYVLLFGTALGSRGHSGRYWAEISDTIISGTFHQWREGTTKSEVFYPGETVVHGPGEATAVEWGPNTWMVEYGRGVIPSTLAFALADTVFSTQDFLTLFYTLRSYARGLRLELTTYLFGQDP", "conditions": "Compound concentration 10.0 uM"}, "[22]": {"conditions": "Compound concentration 0.001 uM"}}, "data": [{"molecule": "Cc1c(N2CCCC2)nc2ccc(Br)cc2c1C(=O)NC[C@H](CCC(=O)O)c1ccccc1Cl", "note": "[BAY-6672]", "values": [{"measurement": "inhibition", "setting": "[1]; [22]", "result": 7, "unit": "%"}, {"measurement": "inhibition", "setting": "[1]; Compound concentration 0.01 uM", "result": 35, "unit": "%"}, {"measurement": "inhibition", "setting": "[1]; Compound concentration 0.1 uM", "result": 79, "unit": "%"}, {"measurement": "inhibition", "setting": "[1]; Compound concentration 1.0 uM", "result": 94, "unit": "%"}, {"measurement": "inhibition", "setting": "[1]; Compound concentration 10.0 uM", "result": 97, "unit": "%"}, {"measurement": "inhibition", "setting": "[2]; [22]", "result": 3, "unit": "%"}, {"measurement": "inhibition", "setting": "[2]; Compound concentration 0.01 uM", "result": -2, "unit": "%"}, {"measurement": "inhibition", "setting": "[2]; Compound concentration 0.1 uM", "result": -3, "unit": "%"}, {"measurement": "inhibition", "setting": "[2]; Compound concentration 1.0 uM", "result": -0, "unit": "%"}, {"measurement": "inhibition", "setting": "[2]; Compound concentration 10.0 uM", "result": 20, "unit": "%"}, {"measurement": "inhibition", "setting": "[3]; [22]", "result": 7, "unit": "%"}, {"measurement": "inhibition", "setting": "[3]; Compound concentration 0.01 uM", "result": 2, "unit": "%"}, {"measurement": "inhibition", "setting": "[3]; Compound concentration 0.1 uM", "result": 17, "unit": "%"}, {"measurement": "inhibition", "setting": "[3]; Compound concentration 1.0 uM", "result": 10, "unit": "%"}, {"measurement": "inhibition", "setting": "[3]; Compound concentration 10.0 uM", "result": 15, "unit": "%"}, {"measurement": "inhibition", "setting": "[4]", "result": 13.1, "unit": "%"}, {"measurement": "inhibition", "setting": "[5]", "result": 10, "unit": "%"}, {"measurement": "inhibition", "setting": "[6]", "result": 10, "unit": "%"}, {"measurement": "inhibition", "setting": "[7]", "result": -0, "unit": "%"}, {"measurement": "inhibition", "setting": "[8]", "result": 15, "unit": "%"}, {"measurement": "inhibition", "setting": "[9]", "result": 21, "unit": "%"}, {"measurement": "inhibition", "setting": "[10]", "result": 5, "unit": "%"}, {"measurement": "inhibition", "setting": "[11]", "result": 3, "unit": "%"}, {"measurement": "inhibition", "setting": "[12]", "result": 11, "unit": "%"}, {"measurement": "inhibition", "setting": "[13]", "result": 16, "unit": "%"}, {"measurement": "inhibition", "setting": "[14]", "result": 10, "unit": "%"}]}, {"molecule": "Cc1c(N2CCNCC2)nc2ccc(Br)cc2c1C(=O)NC[C@H](CCC(=O)O)c1ccccc1Cl", "note": "[BAY-403]", "values": [{"measurement": "Ki", "setting": "[15]; read-out: Ki", "result": 585, "unit": "nM"}, {"measurement": "Ki", "setting": "[15]; read-out: pKi (converted)", "result": 537, "unit": "nM"}, {"measurement": "inhibition", "setting": "[16]", "result": 9.12, "unit": "%"}, {"measurement": "inhibition", "setting": "[17]", "result": 3.81, "unit": "%"}, {"measurement": "inhibition", "setting": "[18]", "result": 14.1, "unit": "%"}, {"measurement": "inhibition", "setting": "[19]", "result": 33.5, "unit": "%"}, {"measurement": "inhibition", "setting": "[20]", "result": -3.2, "unit": "%"}, {"measurement": "inhibition", "setting": "[21]", "result": 36.5, "unit": "%"}]}]}
